Series [1] addresses T1, MAO A (Homo sapiens, UniProt P21397).
T1 construct: 20 μg of human brain homogenate (without AD pathology); from tissue; host or cells: human brain homogenate without AD pathology (healthy control)
T1 sequence (P21397 1-527): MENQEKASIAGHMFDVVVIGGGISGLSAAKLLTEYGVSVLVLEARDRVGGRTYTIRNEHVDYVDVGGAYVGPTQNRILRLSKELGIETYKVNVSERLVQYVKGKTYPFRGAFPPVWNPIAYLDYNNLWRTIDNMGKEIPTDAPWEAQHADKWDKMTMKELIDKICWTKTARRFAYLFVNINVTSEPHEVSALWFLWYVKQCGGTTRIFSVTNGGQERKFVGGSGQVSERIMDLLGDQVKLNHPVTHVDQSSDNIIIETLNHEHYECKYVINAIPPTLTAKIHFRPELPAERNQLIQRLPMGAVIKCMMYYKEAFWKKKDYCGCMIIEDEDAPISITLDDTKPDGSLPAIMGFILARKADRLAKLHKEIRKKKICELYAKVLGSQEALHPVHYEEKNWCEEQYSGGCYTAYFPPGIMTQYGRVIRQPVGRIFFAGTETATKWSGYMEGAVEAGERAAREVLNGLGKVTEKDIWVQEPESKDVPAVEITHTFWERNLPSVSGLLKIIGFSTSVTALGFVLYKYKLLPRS
As to the kind of experiment: MAO A FEH competition assay in human HC brain homogenate. It counts as binding. The conditions noted are these: human healthy control brain homogenate; FEH competition. As to the method: (§1) 20 μg of human brain homogenate (without AD pathology) was incubated with a dilution series of each test compound (1000 to 0.06 nM) in the presence of 800 Bq of ^18F-labeled MAO-A binder ([^18F]fluoroethyl harmine, FEH). The samples were shaken at 110 rpm for 45 min at 37° C. Samples were then filtered through GF/B 96 well filter plates and washed twice with 300 μL assay buffer (PBS containing 0.1% BSA and 2% DMSO). Thereafter, filter plates were sealed and a Fuji Film Imaging Plate (BAS-SR2025) was placed on top. The imaging plate was analyzed after overnight exposition using a Fuji Film BAS-5000. Non-specific signal was determined with samples containing ^18F-labeled FEH in the presence of assay buffer without brain substrate and competitor. […] The unblocked ^18F-labeled FEH signal was defined as total binding. IC50 values were calculated by Prism V6 (GraphPad) setting total binding to 100%.

In another series the target is T2, MAO B (Homo sapiens, UniProt P27338).
T2 construct: 20 μg of human brain homogenate (without AD pathology); from tissue; host or cells: human brain homogenate without AD pathology (healthy control)
T2 sequence (P27338 1-520): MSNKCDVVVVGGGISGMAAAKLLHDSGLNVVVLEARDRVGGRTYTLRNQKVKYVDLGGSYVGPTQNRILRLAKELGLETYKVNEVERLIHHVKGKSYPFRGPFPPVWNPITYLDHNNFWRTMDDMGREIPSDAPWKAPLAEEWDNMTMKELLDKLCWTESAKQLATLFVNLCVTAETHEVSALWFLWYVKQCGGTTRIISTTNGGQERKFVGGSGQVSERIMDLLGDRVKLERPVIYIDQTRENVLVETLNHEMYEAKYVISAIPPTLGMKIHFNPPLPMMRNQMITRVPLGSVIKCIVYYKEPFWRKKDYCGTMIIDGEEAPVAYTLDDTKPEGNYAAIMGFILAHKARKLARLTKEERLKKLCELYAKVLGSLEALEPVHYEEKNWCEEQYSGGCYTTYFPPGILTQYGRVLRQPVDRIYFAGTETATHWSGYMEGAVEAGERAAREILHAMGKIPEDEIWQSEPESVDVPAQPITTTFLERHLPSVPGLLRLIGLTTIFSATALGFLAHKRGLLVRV
Put plainly: MAO B 18F-fluoro deprenyl competition assay in human HC brain homogenate. The series is classed as binding. On the procedure: The samples were shaken at 110 rpm for 45 min at 37° C. Samples were then filtered through GF/B 96 well filter plates and washed twice with 300 μL assay buffer (PBS containing 0.1% BSA and 2% DMSO). Thereafter, filter plates were sealed and a Fuji Film Imaging Plate (BAS-SR2025) was placed on top. The imaging plate was analyzed after overnight exposition using a Fuji Film BAS-5000. […] IC50 values were calculated by Prism V6 (GraphPad) setting total binding to 100%.

For series [2], the target named is T3, MAO A (Mus musculus, UniProt Q64133).
T3 construct: from tissue; host or cells: whole mouse brain homogenate
T3 sequence (Q64133 1-526): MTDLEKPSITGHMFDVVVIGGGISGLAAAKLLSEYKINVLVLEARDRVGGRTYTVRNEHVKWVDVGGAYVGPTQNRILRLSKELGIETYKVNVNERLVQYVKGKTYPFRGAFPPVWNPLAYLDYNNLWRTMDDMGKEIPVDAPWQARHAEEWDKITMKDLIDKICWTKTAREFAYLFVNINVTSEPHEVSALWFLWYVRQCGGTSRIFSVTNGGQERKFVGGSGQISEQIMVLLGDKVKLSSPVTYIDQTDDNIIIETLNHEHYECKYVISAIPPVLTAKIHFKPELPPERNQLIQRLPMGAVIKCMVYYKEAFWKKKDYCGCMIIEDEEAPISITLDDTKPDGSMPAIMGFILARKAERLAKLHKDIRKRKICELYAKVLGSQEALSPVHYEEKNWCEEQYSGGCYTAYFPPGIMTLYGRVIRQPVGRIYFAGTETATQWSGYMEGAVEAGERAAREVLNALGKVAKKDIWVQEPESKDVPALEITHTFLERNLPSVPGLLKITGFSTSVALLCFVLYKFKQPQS
Put plainly: MAO A 18F-FEH competition assay in mouse brain homogenate. The series is classed as binding. Particulars: for Selectivity over MAO A (in words): compared with 3a.

Another series addresses amyloid-beta (Homo sapiens, UniProt P05067). Put plainly: Binding affinity to amyloid-beta in AD brain homogenate. Particulars: human AD brain homogenate; non-radioactive derivatives. As to the method: as §1, with “human Alzheimer disease” for “human”, “homogenate” for “homogenate (without AD pathology)”, “beta-amyloid binder.” for “MAO-A binder ([^18F]fluoroethyl harmine, FEH).”, “beta-amyloid binder” for “FEH”

The next series has as its target Tau (Homo sapiens, UniProt P10636). As to the kind of experiment: Tau competition binding in human AD brain homogenate with 18F-labeled Tau binder. Particulars: for Binding affinity for Tau (in words): IC50 determined in AD brain homogenate, compared with 3a. As to the method:
20 μg of human Alzheimer disease brain homogenate was incubated with a dilution series of each test compound (1000 to 0.06 nM) in the presence of 800 Bq of ^18F-labeled Tau binder. The samples were shaken at 110 rpm for 45 min at 37° C. Samples were then filtered through GF/B 96 well filter plates and washed twice with 300 μL assay buffer (PBS containing 0.1% BSA and 2% DMSO). Thereafter, filter plates were sealed and a Fuji Film Imaging Plate (BAS-SR2025) was placed on top. The imaging plate was analyzed after overnight exposition using a Fuji Film BAS-5000. Non-specific signal was determined with samples containing ^18F-labeled Tau-reference binder in the presence of assay buffer without brain substrate and competitor. […] The unblocked ^18F-labeled Tau-binder signal was defined as total binding. IC50 values were calculated by Prism V6 (GraphPad) setting total binding to 100%.

Series [3] is described as follows: PK studies in healthy mice (PET). The series is classed as in vivo, NMRI mice. The conditions noted are these: 18F tracer; for Mouse PK De-fluorination: bone uptake, footnote f: no de-fluorination detected; for Mouse PK Uptake: brain; for Mouse PK Washout: ratio of uptake peak/30 min. As to the method: NMRI mice (weight range 25-35 g) were injected intravenously with the ^18F-labeled compounds. Up to 150 μL of 1×PBS solution with 10%-15% EtOH or dilution medium ([…]) containing the ^18F-labeled compound (2-10 MBq) were injected. Anesthesia with isoflurane was induced before injection of the tracer and maintained during the image acquisition period. PET scans were performed using a SIEMENS INVEON small animal PET/CT scanner (Siemens, Knoxville, Tenn.). PET acquisition was started immediately before the radioactive dose was injected into the animal through the tail vein. Images were generated as dynamic scans for 60 minutes.
The peak uptake in the brain was set to 100% and washout curves were generated to evaluate the clearance of the activity from the normal brain (FIG. 2).

The mark [4] stands for this setting: 18F-FEH competition, non-radioactive derivatives, read-out: IC50 MAO A in mouse brain homogenate.
Where [5] appears, read: human AD brain homogenate, determined with non-radioactive F-1, F-2, F-3a, read-out: IC50 for tau binding in AD brain homogenate.
The mark [6] stands for this setting: IC50 in AD brain homogenate, non-radioactive fluorine-19 derivatives, read-out: high Tau binding.
The mark [7] stands for this setting: grade, AD brain homogenate, non-radioactive fluorine-19 derivatives, read-out: high Tau binding.
[8] abbreviates: IC50 in mouse brain homogenate, fluorine-19 derivatives, read-out: low MAO A binding.
Setting [9] is: grade, IC50 in mouse brain homogenate, fluorine-19 derivatives, read-out: low MAO A binding.

The term IC50 denotes the concentration that gives 50% inhibition.

The structures appear in SMILES notation. pIC50: −log10 of the molar value. “And” between values parts separate entries of the source, which are not always exact repeats. Identical values can stand only once. Like-named read-outs stand apart in the source and are kept apart here.

Chain of amyloid-beta (P05067 672-711 limits assumed): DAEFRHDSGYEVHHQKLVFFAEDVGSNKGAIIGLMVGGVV
Chain of Tau (P10636 623-708 limits assumed): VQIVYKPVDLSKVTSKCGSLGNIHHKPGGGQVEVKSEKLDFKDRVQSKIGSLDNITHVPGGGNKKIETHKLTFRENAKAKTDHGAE

As to `Fc1ccc(-c2ccc3c(c2)[nH]c2ccncc23)cn1` [Example F-1], the pIC50 at MAO A [1] is 8.30; at MAO B, 6.77; on MAO A [2] (setting [4]), 7.66; on amyloid-beta it was under 6.00; on Tau (setting [5]), over 8.70.
Consider `Fc1ccc(-c2ccc3c(n2)[nH]c2ccncc23)cn1` [Example F-2], for which the pIC50 is 7.00 at MAO A [1]; 6.32 at MAO A [2] (setting [4]); under 6.00 at amyloid-beta; over 8.30 on Tau (setting [6]); over 8.30 on Tau (setting [7]); over 8.70 on Tau (setting [5]). In addition, the “Selectivity over MAO A (in words)” value at MAO A [2] is given as “Inferior”. Moreover, in series [3], the “Mouse PK De-fluorination” value is listed as “(6.2% ID/g)”. Moreover, in series [3], the “Mouse PK Uptake” value is “(5.7% ID/g)”. The “Mouse PK Washout” value in series [3] is reported as “(10.9)”.
Consider `Fc1cc(-c2ccc3c(n2)[nH]c2ccncc23)ccn1` [Example F-3a], for which the pIC50 on MAO A [1] is 5.96 and 6.28; at MAO A [2] (setting [4]) it was 5.85; at MAO A [2] (setting [8]) it was under 6.00; at MAO A [2] (setting [9]), under 6.00; at amyloid-beta it was under 6.00; on Tau (setting [6]), over 8.30. Moreover, the pIC50 at Tau (setting [7]) is over 8.30; on Tau (setting [5]), over 8.70. Besides, the “Mouse PK De-fluorination” value in series [3] was “(<0.5% ID/g)^f”. For the same compound, in series [3], the “Mouse PK Uptake” value is given as “(4.4-5.9% ID/g) ^”. Moreover, the “Mouse PK Washout” value in series [3] is “(11.2-16.6)”.
`Fc1cnccc1-c1ccc2c(n1)[nH]c1ccncc12` [Example F-3b]: the figures for the pIC50 at MAO A [2] (setting [8]), at Tau (setting [6]) and on Tau (setting [7]) were 6.12, over 8.30 and over 8.30, respectively. Also, the “Mouse PK Uptake” value in series [3] is listed as “(4.0% ID/g)”. Also, in series [3], the “Mouse PK Washout” value is reported as “(19.4)”.
As for `Fc1cncc(-c2ccc3c(n2)[nH]c2ccncc23)c1` [Example F-5], the pIC50 at MAO A [2] (setting [8]) was under 6.00. Moreover, at MAO A [2] (setting [9]), the pIC50 is under 6.00. In series [3], the “Mouse PK De-fluorination” value is reported as “(2.9% ID/g)”, the “Mouse PK Uptake” value was “(5.3% ID/g)” and the “Mouse PK Washout” value is listed as “(9.6)”. The “Binding affinity for Tau (in words)” value on Tau is “inferior”. Besides, the pIC50 at Tau (setting [6]) is 8.20.
Regarding `Fc1ccncc1-c1ccc2c(n1)[nH]c1ccncc12` [Example F-6], the pIC50 at MAO A [2] (setting [8]) was under 6.00; on MAO A [2] (setting [9]), under 6.00; on Tau (setting [6]), 7.37. Also, in series [3], the “Mouse PK De-fluorination” value was “(4.8% ID/g)”. Moreover, the “Mouse PK Uptake” value in series [3] was “(8.2% ID/g)”. In series [3], the “Mouse PK Washout” value is listed as “(14.5)”. Moreover, at Tau, the “Binding affinity for Tau (in words)” value is reported as “poor”.
For `Fc1cccc(-c2ccc3c(n2)[nH]c2ccncc23)n1` [Example F-7], the pIC50 at MAO A [2] (setting [8]) was 6.57. Also, on MAO A [2], the “Selectivity over MAO A (in words)” value is given as “Inferior”. Moreover, in series [3], the “Mouse PK De-fluorination” value was “(11.1% ID/g)”, the “Mouse PK Uptake” value is reported as “(8.5% ID/g)” and the “Mouse PK Washout” value is “(7.0)”. Besides, the “Binding affinity for Tau (in words)” value on Tau was “inferior”. Further, the pIC50 at Tau (setting [6]) is 8.15.
As for `Fc1ccc(-c2ccc3c(n2)[nH]c2ccncc23)nc1` [Example F-8], the values for the pIC50 on MAO A [2] (setting [8]), on Tau (setting [6]) and at Tau (setting [7]) were 7.12, over 8.30 and over 8.30, respectively. The “Selectivity over MAO A (in words)” value on MAO A [2] is “Inferior”.
Turning to `Fc1ccnc(-c2ccc3c(n2)[nH]c2ccncc23)c1` [Example F-9], the results for the pIC50 at MAO A [2] (setting [8]), at MAO A [2] (setting [9]) and at Tau (setting [6]) were under 6.00, under 6.00 and 8.08, respectively. In addition, at Tau, the “Binding affinity for Tau (in words)” value was “inferior”.
For the compound `Fc1cccnc1-c1ccc2c(n1)[nH]c1ccncc12` [Example F-10], the IC50 at MAO A [2] (low MAO A binding [nM], IC50 in mouse brain homogenate, fluorine-19 derivatives) was over 1000 nM. The pIC50 at MAO A [2] (low MAO A binding, grade, IC50 in mouse brain homogenate, fluorine-19 derivatives) was under 6.00. For the same compound, in series [3], the “Mouse PK De-fluorination” value is reported as “(6.2% ID/g)”, the “Mouse PK Uptake” value is listed as “(2.1% ID/g)” and the “Mouse PK Washout” value was “(3.6)”. Moreover, on Tau, the “Binding affinity for Tau (in words)” value was “poor”. Besides, the pIC50 at Tau (setting [6]) was 6.99.

The values above are taken from patent US10835624B2, “Compounds for imaging Tau protein aggregates” (AC IMMUNE S.A., priority 2016, dated 2020).
